In ChEMBL document CHEMBL3885881, “DrugMatrix”:

Organism: Rattus norvegicus
Assay: DrugMatrix - Regimen: Daily Repeat
Type: toxicity, organism-based, Sprague-Dawley
Parameters: regimen Daily Repeat, gender Male, age 6-8 weeks
Details: in vivo, sc, route subcutaneous, […]; for ABSOLUTE BASOPHIL / ABSOLUTE EOSINOPHIL / ABSOLUTE LYMPHOCYTE / ABSOLUTE MONOCYTE / ABSOLUTE SEGMENTED NEUTROPHIL / BASOPHIL / EOSINOPHIL / ERYTHROCYTE COUNT / HEMATOCRIT / HEMOGLOBIN / LEUKOCYTE COUNT / LYMPHOCYTE / MEAN CORPUSCULAR HEMOGLOBIN / MEAN CORPUSCULAR HEMOGLOBIN CONCENTRATION / MEAN CORPUSCULAR VOLUME / MONOCYTE / NEUTROPHIL / NUCLEATED RED BLOOD CELLS / PLATELET COUNT: tissue Blood; for ALANINE AMINOTRANSFERASE / ALBUMIN / ALKALINE PHOSPHATASE / ASPARTATE AMINOTRANSFERASE / BLOOD UREA NITROGEN / CARBON DIOXIDE / CHLORIDE / CHOLESTEROL / CREATINE PHOSPHOKINASE / CREATININE / GLUCOSE / LACTATE DEHYDROGENASE / LIPASE / PHOSPHORUS / POTASSIUM / SODIUM / TOTAL BILIRUBIN / TOTAL PROTEIN / URIC ACID: tissue Plasma
[1] = 56 mg/kg, 120 h, dose level High, time 5 day
[2] = 72 h, dose 3.3 mg/Kg, dose level Low, time 3 day
[3] = 120 h, dose 3.3 mg/Kg, dose level Low, time 5 day

Q: What does the source list for `C[C@]12CCC(=O)C=C1CC[C@@H]1[C@@H]2[C@@H](O)C[C@@]2(C)[C@H]1CC[C@]2(O)C(=O)CO` [HYDROCORTISONE]?
A: ABSOLUTE BASOPHIL [1]: 0 CELLS/uL; ABSOLUTE EOSINOPHIL [1]: 0 CELLS/uL; ABSOLUTE LYMPHOCYTE [1]: 1058 CELLS/uL; ABSOLUTE MONOCYTE [1]: 166.67 CELLS/uL; ABSOLUTE SEGMENTED NEUTROPHIL [1]: 5575.33 CELLS/uL; BASOPHIL [1]: 0%; EOSINOPHIL [1]: 0%; ERYTHROCYTE COUNT [1]: 6.58 x10E6/uL; HEMATOCRIT [1]: 40.47%; HEMOGLOBIN [1]: 15.5 G/DL; LEUKOCYTE COUNT [1]: 6.8 x10E3/uL; LYMPHOCYTE [1]: 17%; MEAN CORPUSCULAR HEMOGLOBIN [1]: 23.6 pg; MEAN CORPUSCULAR HEMOGLOBIN CONCENTRATION [1]: 38.3 G/DL; MEAN CORPUSCULAR VOLUME [1]: 61.63 fL; MONOCYTE [1]: 2.33%; NEUTROPHIL [1]: 80.67%; NUCLEATED RED BLOOD CELLS [1]: 0 /100WBC; PLATELET COUNT [1]: 1367.33 x10E3/uL; ALANINE AMINOTRANSFERASE [1]: 309 u/L; ALBUMIN [1]: 4.87 G/DL; ALKALINE PHOSPHATASE [1]: 497.33 u/L; ASPARTATE AMINOTRANSFERASE [1]: 475.33 u/L; BLOOD UREA NITROGEN [1]: 23 mg/dL; CARBON DIOXIDE [1]: 31.33 mmol/L; CHLORIDE [1]: 95 MEQ/L; CHOLESTEROL [1]: 140 mg/dL; CREATINE PHOSPHOKINASE [1]: 224.67 u/L; CREATININE [1]: 0.49 mg/dL; GLUCOSE [1]: 479 mg/dL; LACTATE DEHYDROGENASE [1]: 701 u/L; LIPASE [1]: 15 u/L; PHOSPHORUS [1]: 12.63 mg/dL; POTASSIUM [1]: 5.83 MEQ/L; SODIUM [1]: 145.23 MEQ/L; TOTAL BILIRUBIN [1]: 0.17 mg/dL; TOTAL PROTEIN [1]: 6.73 G/DL; URIC ACID [1]: 1.57 mg/dL; ABSOLUTE BASOPHIL [2]: 0 CELLS/uL; ABSOLUTE EOSINOPHIL [2]: 0 CELLS/uL; ABSOLUTE LYMPHOCYTE [2]: 9134.67 CELLS/uL; ABSOLUTE MONOCYTE [2]: 0 CELLS/uL; ABSOLUTE SEGMENTED NEUTROPHIL [2]: 898.67 CELLS/uL; BASOPHIL [2]: 0%; EOSINOPHIL [2]: 0%; ERYTHROCYTE COUNT [2]: 5.23 x10E6/uL; HEMATOCRIT [2]: 33.47%; HEMOGLOBIN [2]: 13.37 G/DL; LEUKOCYTE COUNT [2]: 10.03 x10E3/uL; LYMPHOCYTE [2]: 90.67%; MEAN CORPUSCULAR HEMOGLOBIN [2]: 25.6 pg; MEAN CORPUSCULAR HEMOGLOBIN CONCENTRATION [2]: 39.93 G/DL; MEAN CORPUSCULAR VOLUME [2]: 64.07 fL; MONOCYTE [2]: 0%; NEUTROPHIL [2]: 9.33%; NUCLEATED RED BLOOD CELLS [2]: 0 /100WBC; PLATELET COUNT [2]: 1185.33 x10E3/uL; ALANINE AMINOTRANSFERASE [2]: 42.33 u/L; ALBUMIN [2]: 4.73 G/DL; ALKALINE PHOSPHATASE [2]: 429 u/L; ASPARTATE AMINOTRANSFERASE [2]: 94.33 u/L; BLOOD UREA NITROGEN [2]: 15.67 mg/dL; CARBON DIOXIDE [2]: 32.67 mmol/L; CHLORIDE [2]: 101.33 MEQ/L; CHOLESTEROL [2]: 78.67 mg/dL; CREATINE PHOSPHOKINASE [2]: 185 u/L; CREATININE [2]: 0.23 mg/dL; GLUCOSE [2]: 137.67 mg/dL; LACTATE DEHYDROGENASE [2]: 131.33 u/L; LIPASE [2]: 9.67 u/L; PHOSPHORUS [2]: 12.3 mg/dL; POTASSIUM [2]: 6.34 MEQ/L; SODIUM [2]: 150.8 MEQ/L; TOTAL BILIRUBIN [2]: 0.3 mg/dL; TOTAL PROTEIN [2]: 6.73 G/DL; URIC ACID [2]: 0.83 mg/dL; ABSOLUTE BASOPHIL [3]: 0 CELLS/uL; ABSOLUTE EOSINOPHIL [3]: 115 CELLS/uL; ABSOLUTE LYMPHOCYTE [3]: 10473.33 CELLS/uL; ABSOLUTE MONOCYTE [3]: 38.33 CELLS/uL; ABSOLUTE SEGMENTED NEUTROPHIL [3]: 1440 CELLS/uL; BASOPHIL [3]: 0%; EOSINOPHIL [3]: 1%; ERYTHROCYTE COUNT [3]: 5.54 x10E6/uL; HEMATOCRIT [3]: 36.47%; HEMOGLOBIN [3]: 14.6 G/DL; LEUKOCYTE COUNT [3]: 12.07 x10E3/uL; LYMPHOCYTE [3]: 87%; MEAN CORPUSCULAR HEMOGLOBIN [3]: 26.37 pg; MEAN CORPUSCULAR HEMOGLOBIN CONCENTRATION [3]: 40.07 G/DL; MEAN CORPUSCULAR VOLUME [3]: 65.8 fL; MONOCYTE [3]: 0.33%; NEUTROPHIL [3]: 11.67%; NUCLEATED RED BLOOD CELLS [3]: 0 /100WBC; PLATELET COUNT [3]: 1230 x10E3/uL; ALANINE AMINOTRANSFERASE [3]: 51.67 u/L; ALBUMIN [3]: 4.73 G/DL; ALKALINE PHOSPHATASE [3]: 334.67 u/L; ASPARTATE AMINOTRANSFERASE [3]: 73 u/L; BLOOD UREA NITROGEN [3]: 15.33 mg/dL; CARBON DIOXIDE [3]: 31.33 mmol/L; CHLORIDE [3]: 104 MEQ/L; CHOLESTEROL [3]: 66 mg/dL; CREATINE PHOSPHOKINASE [3]: 123.33 u/L; CREATININE [3]: 0.18 mg/dL; GLUCOSE [3]: 160 mg/dL; LACTATE DEHYDROGENASE [3]: 97.33 u/L; LIPASE [3]: 9.33 u/L; PHOSPHORUS [3]: 14.23 mg/dL; POTASSIUM [3]: 6.63 MEQ/L; SODIUM [3]: 149.93 MEQ/L; TOTAL BILIRUBIN [3]: 0.2 mg/dL; TOTAL PROTEIN [3]: 6.63 G/DL; URIC ACID [3]: 1.7 mg/dL
